Source: ChEMBL document CHEMBL4834424, “Targeting Chikungunya Virus Replication by Benzoannulene Inhibitors” (J Med Chem, 2021)
Converted amounts (≈) assume the structure as drawn. The source made the active and inactive calls. The rule behind the calls is not given here.

Experiments:
[1] = Cytotoxicity against human NHDF cells assessed as cell viability measured after 24 hrs by Cell Titer Glo luminescent assay; type: cell-based; settings: NHDF cells
[2] = Aqueous solubility of the compound; type: physicochemical
[3] = Octanol-aqueous buffer distribution coefficient, log D of the compound by LC-MS analysis; type: physicochemical
Chikungunya virus [4] = test: (§1) Antiviral activity against CHIKV infected in human NHDF cells assessed as reduction in virus titer in cell supernatant by measuring inhibition of plaque formation using Vero cells at 10 uM pretreated with NHDF cells followed by infected with virus incubated for 24 hrs and measured following infection of supernatants with Vero cells for 48 hrs by plaque based methylene blue dye analysis; type: functional; settings: time 72 hrs
[5] = Metabolic stability in mouse liver microsomes assessed as half life in presence of NADPH incubated up to 45 mins by LC-MS/MS analysis; type: ADME, Microsome; parameters: unit not given here; settings: liver microsomes
Chikungunya virus [6] = test: as §1, with “cells” for “cells at 10 uM”; type: functional, organism-based
[7] = Metabolic stability in human liver microsomes assessed as half life in presence of NADPH incubated up to 45 mins by LC-MS/MS analysis; type: ADME, Microsome
[8] = Cytotoxicity against HEK293 cells at 10 uM; type: cell-based; settings: human
[9] = molecular target: Dihydroorotate dehydrogenase (quinone), mitochondrial (Homo sapiens, UniProt Q02127)
dengue virus type 2 = test: (§2) Antiviral activity against DENV2 infected in HEK293 cells assessed as reduction in virus titer in cell supernatant by measuring inhibition of plaque formation using Vero cells at 10 uM measured following infection of supernatants with Vero cells for 48 hrs pi by serial dilution plaque based methylene blue dye analysis; type: functional
West Nile virus = test: as §2, with “West nile virus” for “DENV2”; type: functional
Chikungunya virus [10] = type: functional; settings: 181-25, C6, time 48 hrs
[11] = system: Venezuelan equine encephalitis virus; test: as §2, with “Venezuelan equine encephalitis virus TC83” for “DENV2”, “Asian tiger mosquito C6/36” for “HEK293”, “and” for “at 10 uM”; type: functional
Chikungunya virus [12] = type: functional, organism-based; settings: 181-25, NHDF, dose 20.0 µM, time 13.0 hrs
Chikungunya virus [13] = test: Antiviral activity against CHIKV-nLuc RNA transfected NHDF cells assessed as decrease in CHIKV RNA at 10 uM pretreated 1 hr before transfection measured after 12 hrs by Nano-Glo luciferase assay; type: functional, organism-based; settings: time 13.0 hrs
Una virus = test: as §2, with “Una virus MAC150” for “DENV2”, “Asian tiger mosquito C6/36” for “HEK293”, “and” for “at 10 uM”; type: functional
Chikungunya virus [14] = test: as §1, with “mouse NIH3T3” for “human NHDF”, “cells” for “cells at 10 uM”, “NIH3T3” for “NHDF”; type: functional; settings: dose 10 µM
Chikungunya virus [15] = type: functional, organism-based; settings: 181-25, NHDF, dose 20.0 µM, time 13.0 hrs; remark: listed apart in the source
Chikungunya virus [16] = test: Antiviral activity against resistance mutation induced CHIKV-117 infected in […] cells assessed as viral infectivity in Vero cells at 10 uM measured up to 24 hrs of post infection by supernatant was quantified by plaque assay; type: functional, organism-based; settings: time hrs <=24
Chikungunya virus [17] = type: functional, organism-based; settings: 181-25, NHDF, dose 20.0 µM, time 13.0 hrs; remark: listed apart in the source
Chikungunya virus [18] = test: as §2, with “CHIKV 99659” for “DENV2”, “Asian tiger mosquito C6/36” for “HEK293”, “and” for “at 10 uM”; type: functional; settings: Chikungunya virus, 99659, C6
Onyong-nyong virus = test: as §2, with “O'nyong-nyong virus” for “DENV2”, “Asian tiger mosquito C6/36” for “HEK293”, “and” for “at 10 uM”; type: functional
Chikungunya virus [19] = test: Antiviral activity against resistance mutation induced CHIKV-119 infected in […] cells assessed as viral infectivity in Vero cells at 10 uM measured up to 24 hrs of post infection by supernatant was quantified by plaque assay; type: functional, organism-based; settings: time hrs <=24
Chikungunya virus [20] = test: as §2, with “CHIKV 37997” for “DENV2”, “Asian tiger mosquito C6/36” for “HEK293”, “and” for “at 10 uM”; type: functional; settings: Chikungunya virus, 37997, C6
Chikungunya virus [21] = test: Antiviral activity against resistance mutation induced CHIKV-117/119 infected in […] cells assessed as viral infectivity in Vero cells at 10 uM measured up to 24 hrs of post infection by supernatant was quantified by plaque assay; type: functional, organism-based; settings: time hrs <=24
Chikungunya virus [22] = test: as §2, with “CHIKV LR2006-OPY1” for “DENV2”, “Asian tiger mosquito C6/36” for “HEK293”, “and” for “at 10 uM”; type: functional
Chikungunya virus [23] = test: Antiviral activity against CHIKV-nLuc RNA transfected NHDF cells assessed as decrease in Nano-luc signal at 20 uM pretreated 24 hrs before transfection in presence of guanosine measured after 24 hrs by Nano-Glo luciferase assay; type: functional, organism-based
Chikungunya virus [24] = test: Antiviral activity against CHIKV infected in IFN regulatory factor 3 telomerized human fibroblast cells assessed as reduction in virus titer in cell supernatant by measuring inhibition of plaque formation using Vero cells […] followed by infected with virus incubated for 24 hrs and measured following infection of supernatants with Vero cells for 48 hrs by plaque based …; type: functional; settings: time 72 hrs
[25] = as §2, with “Ross river virus” for “DENV2”, “Asian tiger mosquito C6/36” for “HEK293”, “and” for “at 10 uM”; type: functional; settings: La Crosse virus
Chikungunya virus [26] = type: functional, organism-based; settings: 181-25, Vero, dose 10.0 µM, time 20.0 hrs
Chikungunya virus [27] = type: functional, organism-based; settings: 181-25, NHDF, dose 20.0 µM, time 13.0 hrs; remark: listed apart in the source
Mayaro virus = test: as §2, with “Mayaro virus TRVL” for “DENV2”, “Asian tiger mosquito C6/36” for “HEK293”, “and” for “at 10 uM”; type: functional
Chikungunya virus [28] = test: Antiviral activity against CHIKV-nLuc RNA transfected NHDF cells assessed as decrease in Nano-luc signal at 20 uM pretreated 24 hrs before transfection in presence of uridine measured after 24 hrs by Nano-Glo luciferase assay; type: functional, organism-based; settings: time 48.0 hrs
[29] = system: Venezuelan equine encephalitis virus; test: as §2, with “Venezuelan equine encephalitis virus TC83” for “DENV2”, “human […]” for “HEK293”; type: functional, NHDF

Dihydroorotate dehydrogenase (quinone), mitochondrial, sequence (Q02127 whole entry): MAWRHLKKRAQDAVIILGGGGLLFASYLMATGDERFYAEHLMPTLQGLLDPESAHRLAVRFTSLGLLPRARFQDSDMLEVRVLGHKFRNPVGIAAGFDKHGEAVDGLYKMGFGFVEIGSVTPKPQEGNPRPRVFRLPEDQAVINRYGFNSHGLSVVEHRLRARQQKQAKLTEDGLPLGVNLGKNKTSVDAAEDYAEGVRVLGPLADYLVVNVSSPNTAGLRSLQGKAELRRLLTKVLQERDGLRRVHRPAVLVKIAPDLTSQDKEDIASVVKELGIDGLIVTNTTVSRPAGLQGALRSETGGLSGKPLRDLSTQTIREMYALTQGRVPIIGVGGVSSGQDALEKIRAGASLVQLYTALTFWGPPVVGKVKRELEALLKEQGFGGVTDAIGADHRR

## COc1cc2c(cc1NC(=O)c1ccc(C3(C(F)(F)F)CC3)cc1)CCCCC2
[1]
  CC50 at 24 h: > 30 µM
[2]; aqueous, read-out: solubility
  solubility: < 1 µM
[3]
  logD: 6
Chikungunya virus [4]
  log(activity): 1
[5]
  half-life: 1320
Chikungunya virus [6]
  EC50: 1.3 µM
[7]
  half-life: 67 h

## CC(C)(C)c1ccc(C(=O)Nc2cc3c(cc2C#N)CCCCC3)cc1
[1]
  CC50 at 24 h: > 30 µM
[2]; aqueous, read-out: solubility
  solubility: < 1 µM
[3]
  logD: 5
Chikungunya virus [4]
  log(activity): 1.8
[5]
  half-life: 1860
Chikungunya virus [6]
  EC50: 4.4 µM
[7]
  half-life: 76 h

## COc1cc2c(cc1NC(=O)c1ccc(C(C)(C)C#N)cc1)CCCCC2
[1]
  CC50 at 24 h: > 30 µM
[2]; aqueous, read-out: solubility
  solubility: 35 µM (≈ 12.7 µg/mL)
[3]
  logD: 4
Chikungunya virus [4]
  log(activity): 1.7
[5]
  half-life: 720
Chikungunya virus [6]
  EC50: 1.6 µM
[7]
  half-life: 51 h

## CC(C)(C)c1ccc(NC(=O)c2ccc3c(c2)CCCCC3)cc1
[8]
  CC50: > 30 µM
[1]
  CC50 at 24 h: > 30 µM
Chikungunya virus [4]
  log(activity): 4.2
Chikungunya virus [6]
  EC50: 7 µM

## COc1cc2c(cc1C(=O)Nc1cc(C(C)(C)C)[nH]n1)CCCCC2
[9]
  IC50: > 30 µM

## CC(C)(C)c1ccc(NC(=O)c2cc3c(cc2O)CCCCC3)cc1
[1]
  CC50 at 24 h: > 30 µM
[2]; aqueous, read-out: solubility
  solubility: < 1 µM
[3]
  logD: 4.2
Chikungunya virus [4]
  log(activity): 3.3
[9]
  IC50: > 30 µM
[5]
  half-life: 4680
Chikungunya virus [6]
  EC50: 1.54 µM
[7]
  half-life: 49 h

## CCc1cc2c(cc1NC(=O)c1ccc(C(C)(C)C)cc1)CCCCC2
[1]
  CC50 at 24 h: > 30 µM
[2]; aqueous, read-out: solubility
  solubility: < 1 µM
[3]
  logD: 5
Chikungunya virus [4]
  log(activity): 4.9
[9]
  IC50: > 30 µM
[5]
  half-life: 660
Chikungunya virus [6]
  EC50: 1.7 µM
[7]
  half-life: 37 h

## COc1cc2c(cc1C(=O)Nc1ccc(C(C)(C)O)cc1)CCCCC2
[1]
  CC50 at 24 h: > 30 µM
Chikungunya virus [4]
  log(activity): 1.6
[9]
  IC50: 24.1 µM
Chikungunya virus [6]
  EC50: 8 µM

## CC(C)(C)c1ccc(C(=O)Nc2cc3c(cc2O)CCCCC3)cc1
[1]
  CC50 at 24 h: > 30 µM
[2]; buffer
  solubility: 1 µM (≈ 0.337 µg/mL)
[3]
  logD: 5
Chikungunya virus [4]
  log(activity): 3.5
[9]
  IC50: > 30 µM
[5]
  half-life: 1860
Chikungunya virus [6]
  EC50: 0.4 µM
[7]
  half-life: 74 h

## COc1cc2c(cc1C(=O)Nc1ccc(C(C)(C)C)cc1)CCCCC2
[1]
  CC50 at 24 h: > 30 µM
[2]; aqueous, read-out: solubility
  solubility: 0.5 µM (≈ 0.176 µg/mL)
Dengue virus type 2
  log(activity): 1.9
[3]
  logD: 4
West Nile virus
  log(activity): 1.7
Chikungunya virus [4]
  log(activity): 3.2
[9]
  IC50: 3 µM
Chikungunya virus [6]
  EC50: 0.48 µM
Chikungunya virus [10]
  EC90: 1.6 µM
[7]
  half-life: 99 h
[11]
  EC90: 2.9 µM

## COc1cc2c(cc1NC(=O)c1ccc(C(C)(C)C)cc1)CCCCC2
Chikungunya virus [12]
  inhibition: Active
Chikungunya virus [13]
  inhibition: Active
[8]
  CC50: > 30 µM
Una virus
  EC90: 0.34 µM
[1]
  CC50 at 24 h: 78.5 µM
Chikungunya virus [14]
  EC90: 1.01 µM
Chikungunya virus [15]
  inhibition: Active
Dengue virus type 2
  log(activity): 1.5
Chikungunya virus [16]
  Activity: Active
Chikungunya virus [17]
  inhibition: Active
Chikungunya virus [18]
  EC90: 0.78 µM
Onyong-nyong virus
  EC90: 0.18 µM
West Nile virus
  log(activity): 2
Chikungunya virus [19]
  Activity: Active
Chikungunya virus [20]
  EC90: 0.18 µM
Chikungunya virus [21]
  Activity: Active
Chikungunya virus [22]
  EC90: 0.15 µM
Chikungunya virus [4]
  log(activity): 4
Chikungunya virus [23]
  Activity: Active
Chikungunya virus [24]
  EC90: 4.87 µM
[9]
  IC50: 3.5 µM
[25]
  EC90: 0.21 µM
Chikungunya virus [26]
  inhibition: Active
Chikungunya virus [27]
  inhibition: Active
Mayaro virus
  EC90: 0.25 µM
Chikungunya virus [28]
  Activity: inactive
[11]
  EC90: 2.9 µM
[29]
  log(activity): 2.7

## COc1cc2c(cc1NC(=O)c1ccc(C(O)(C(F)(F)F)C(F)(F)F)cc1)CCCCC2
[1]
  CC50 at 24 h: > 30 µM
[2]; aqueous, read-out: solubility
  solubility: < 1 µM
[3]
  logD: 5
Chikungunya virus [4]
  log(activity): 3.1
[5]
  half-life: 660
Chikungunya virus [6]
  EC50: 2.8 µM
[7]
  half-life: 70 h
